Measurements published in patent US9994509B2, “Inhibitors of viral replication, their process of preparation and their therapeutical uses” (HIVIH, priority 2013, dated 2018).

Tested on: NL4-3 strain of HIV-1
Assay: HIV-1 replication assay: cyto-protection of MT4 cells infected with NL4-3 virus, CellTiter-Glo viability readout
Type: cell-based
Details: Human immunodeficiency virus 1, NL43, 120 h; concentration leading to 50% of cyto-protection; MT4 cells infected with NL4-3 virus; 5 days incubation; CellTiter-Glo; read-out: EC50
Procedure: The antiviral activity, particularly against HIV, of compounds according to the invention is evaluated by the protocol described below.
Preparation of Virus stock of the NL4-3 strain of HIV-1 (Adachi et al, J Virol, 1986, 59(2):284-91).
The virus was prepared as described in Lopez et al (Lopez et al, Proc Natl Acad Sci USA., 2006, 103(40):14947-52, by transfecting 2×10^6 293 T cells (CRL-1573, ATCC) with following modifications: 6 μg of NL4-3 proviral DNA molecular clone were mixed with X-tremeGENE 9 DNA transfection reagent from Roche, and used according to manufacturer's instructions. Twenty four hours later, cells were washed and fresh medium added. Forty eight hours after transfection, cell supernatants were harvested, filtered through 0.45-μm-pore-size filters, quantified for HIV-1 p24 antigen by using an Innotest HIV antigen mAb assay (Ingen) according to manufacturer's instructions, and used in infection experiments.
Serial dilutions of compounds to be tested were prepared in complete RPMI medium from 10 mM DMSO stock solutions, and distributed in a volume of 20 μl in 96 well tissue-culture treated plates (Costar 3917), in order to get 0.5% DMSO final concentration in each well, after the addition of infected cells. Control wells contained also 0.5% DMSO final concentration but no compound.
MT4 cells (from the NIH AIDS Research and Reference Reagent Program) in RPMI complete medium were counted (10×10^6 cells per well in Falcon 353047 Multiwell™ 24 well) and infected for 2 hours at 37°, at a multiplicity of infection (moi) of 0.0001-0.00001. Cells were then centrifuged for 3 min at 3000 rpm, and washed two times in 1 ml PBS to remove viruses that have not entered the cells. Infected cells were resuspended in complete RPMI at 1.25×10^6 cells/ml, and 80 μl of infected cells were distributed in each well containing compounds to be tested or control wells. The plates were then incubated at 37° C. for 5 days.
Assay used to measure the inhibition of HIV replication by the compounds (according to Gregg S. Jones et al., Antimicrobial Agents and Chemotherapy, 2009, 53 (3): 1194-1203).
After 5 days of incubation, microplates were equilibrated to room temperature for 30 min and then 50 μl of CellTiter-Glo reagent (Promega Biosciences, Inc., Madison Wis., USA) were added to each well. Cell lysis was carried out at room temperature during 10 min and luminescence was read on a Fluoroskan (Thermo Scientific).
The EC50, or effective concentration 50, is the concentration of compound leading to 50% of cyto-protection in a CellTiter-Glo® viability assay based on MT4 cells infected with NL4-3 virus (table 1).

| Compound | EC50 |
| --- | --- |
| Cc1ccc(C2CC2)c(-c2ccc3c(c2)CCCO3)c1C(OCCF)C(=O)O (centres unmarked) [Example 35, (2-chroman-6-yl-3-cyclopropyl-6-methyl-phenyl)-(2-fluoro-ethoxy)-acetic acid] | 830 nM |
| CCCOC(C(=O)O)c1c(C)ccc(C2CC2)c1-c1ccc2c(c1)CCCO2 (centres unmarked) [Example 28, (2-chroman-6-yl-3-cyclopropyl-6-methyl-phenyl)-propoxy-acetic acid] | 500 nM |
| Cc1ccc(C2CC2)c(-c2ccc3c(c2)CCCO3)c1C(OCC(F)F)C(=O)O (centres unmarked) [Example 34, (2-chroman-6-yl-3-cyclopropyl-6-methyl-phenyl)-(2,2-difluoro-ethoxy)-acetic acid] | 440 nM |
| CC(C)c1ccc(C(F)(F)F)c(C(OC(C)(C)C)C(=O)O)c1-c1ccc2c(c1)CCCO2 (centres unmarked) [Example 10, 2-(tert-butoxy)-2-[2-(3,4-dihydro-2H-1-benzopyran-6-yl)-3-(propan-2-yl)-6-(trifluoromethyl)phenyl]acetic acid] | 84 nM |
| COc1cc(C)c(C(OC2CC2)C(=O)O)c(-c2ccc3c(c2)CCCO3)c1C1CC1 (centres unmarked) [Example 56, (2-chroman-6-yl-3-cyclopropyl-4-methoxy-6-methyl-phenyl)-cyclopropoxy-acetic acid] | 500 nM |
| Cc1ccc(C2CC2)c(-c2ccc3c(c2)CCCO3)c1[C@H](OC1CC1)C(=O)O [Example 24, (S)-2-[3-cyclopropyl-2-(3,4-dihydro-2H-1-benzopyran-6-yl)-6-methylphenyl]-2-cyclopropoxyacetic acid] | 42 nM |
| Cc1ccc(C2CC2)c(-c2ccc3c(c2C)CCCO3)c1C(OC1CC1)C(=O)O (centres unmarked) [Example 32, cyclopropoxy-[3-cyclopropyl-6-methyl-2-(5-methyl-chroman-6-yl)-phenyl]-acetic acid] | 32 nM |
| Cc1ccc(C2CC2)c(-c2ccc3c(c2C)CCCO3)c1[C@H](OC(C)(C)C)C(=O)O (atropisomer, axis not shown) [Example 38, (S)-tert-butoxy-[3-cyclopropyl-6-methyl-2-(5-methyl-chroman-6-yl)-phenyl]-acetic acid] | 3 nM |
| Cc1ccc(C2CC2)c(-c2ccc3c(c2)CCCO3)c1C(OC(C)(C)C)C(=O)O (centres unmarked) [Example 1, 2-(tert-butoxy)-2-[3-cyclopropyl-2-(3,4-dihydro-2H-1-benzopyran-6-yl)-6-methylphenyl]acetic acid] | 17 nM |
| Cc1ccc(C2C[C@H]2C2CC2)c(-c2ccc3c(c2)CCCO3)c1C(OC(C)(C)C)C(=O)O (stereo partly drawn) [Example 17, (trans-3-bicyclopropyl-2-yl-2-chroman-6-yl-6-methyl-phenyl)-tert-butoxy-acetic acid] | 330 nM |
| Cc1ccc(-c2c(C3CC3)ccc(C)c2C(OC(C)(C)C)C(=O)O)cc1 (centres unmarked) [Example 14, 2-(tert-butoxy)-2-(6-cyclopropyl-3,4′-dimethyl-biphenyl-2-yl)-acetic acid] | 51 nM |
| Cc1ccc(C2CC2)c(-c2ccc3c(c2)CCCO3)c1[C@H](OC(C)(C)C)C(=O)O [Example 13, (S)-2-(tert-butoxy)-2-[3-cyclopropyl-2-(3,4-dihydro-2H-1-benzopyran-6-yl)-6-methylphenyl]acetic acid] | 8 nM |
| Cc1ccc(C2CC2)c(-c2ccc3c(c2C)CCCO3)c1C(OC(C)(C)C)C(=O)O (centres unmarked) [Example 16, 2-(tert-butoxy)-2-[3-cyclopropyl-6-methyl-2-(5-methyl-chroman-6-yl)-phenyl]acetic acid] | 9 nM |
| Cc1ccc(C2CC2)c(-c2ccc3c(c2)CCCO3)c1C(OC1CC1(F)F)C(=O)O (centres unmarked) [Example 47, (2-chroman-6-yl-3-cyclopropyl-6-methyl-phenyl)-(2,2-difluoro-cyclopropoxy)-acetic acid] | 450 nM |
| Cc1ccc(C2CC2)c(-c2ccc(F)cc2)c1C(OC(C)(C)C)C(=O)O (centres unmarked) [Example 15, 2-(tert-butoxy)-2-(6-cyclopropyl-4′-fluoro-3-methyl-biphenyl-2-yl)-acetic acid] | 340 nM |
| CCOC(C(=O)O)c1c(C)ccc(C2CC2)c1-c1ccc2c(c1)CCCO2 (centres unmarked) [Example 19, 2-(2-chroman-6-yl-3-cyclopropyl-6-methyl-phenyl)-2-ethoxy-acetic acid] | 400 nM |

| Compound | EC50 |
| --- | --- |
| Cc1ccc(C)c(C(OC(C)(C)C)C(=O)O)c1-c1ccc2c(c1)CCCO2 (centres unmarked) [Example 62, 2-(tert-butoxy)-2-[2-(3,4-dihydro-2H-1-benzopyran-6-yl)-3,6-dimethylphenyl]acetic acid, reference compound] | 1600 nM |
| Cc1ccc(C2CC2)c(-c2ccc3c(c2)CCCO3)c1C(OC1CC1)C(=O)O (centres unmarked) [Example 23, 2-[3-cyclopropyl-2-(3,4-dihydro-2H-1-benzopyran-6-yl)-6-methylphenyl]-2-cyclopropoxyacetic acid] | 100 nM |
| CC(C)(C)OC(C(=O)O)c1c(-c2ccc3c(c2)CCCO3)c(C2CC2)cc2ncccc12 (centres unmarked) [Example 42, tert-butoxy-(6-chroman-6-yl-7-cyclopropyl-quinolin-5-yl)-acetic acid] | 190 nM |
| Cc1ccc(C2CC2)c(-c2ccc3c(c2)CCCO3)c1C(CC(C)C)C(=O)O (centres unmarked) [Example 46, 2-[3-cyclopropyl-2-(3,4-dihydro-2H-1-benzopyran-6-yl)-6-methylphenyl]-4-methylpentanoic acid] | 650 nM |
| CC(C)(C)OC(C(=O)O)c1c(C(F)(F)F)ccc(C2CC2)c1-c1ccc2c(c1)CCCO2 (centres unmarked) [Example 2, 2-(tert-butoxy)-2-[3-cyclopropyl-2-(3,4-dihydro-2H-1-benzopyran-6-yl)-6-(trifluoromethyl)phenyl]acetic acid] | 90 nM |
| O=C(O)C(OC1CC1)c1c(C(F)(F)F)ccc(C2CC2)c1-c1ccc2c(c1)CCCO2 (centres unmarked) [Example 27, (2-chroman-6-yl-3-cyclopropyl-6-trifluoromethyl-phenyl)-cyclopropoxy-acetic acid] | 280 nM |
| Cc1ccc(C2CC2)c(-c2cc(F)c3c(c2C)CCCO3)c1[C@H](OC(C)(C)C)C(=O)O (atropisomer, axis not shown) [Example 41, (S)-tert-butoxy-[3-cyclopropyl-2-(8-fluoro-5-methyl-chroman-6-yl)-6-methyl-phenyl]-acetic acid] | 6 nM |
| C=C(C)c1ccc(C(F)(F)F)c(C(OC(C)(C)C)C(=O)O)c1-c1ccc2c(c1)CCCO2 (centres unmarked) [Example 8, 2-(tert-butoxy)-2-[2-(3,4-dihydro-2H-1-benzopyran-6-yl)-3-(prop-1-en-2-yl)-6-(trifluoromethyl)phenyl]acetic acid] | 190 nM |
| CCCc1ccc(C)c(C(OC(C)C)C(=O)O)c1-c1ccc2c(c1)CCCO2 (centres unmarked) [Example 31] | 1000 nM |
| Cc1ccc(C2CC2)c(-c2cc(F)c3c(c2C)CCCO3)c1C(OC1CC1)C(=O)O (centres unmarked) [Example 37, cyclopropoxy-[3-cyclopropyl-2-(8-fluoro-5-methyl-chroman-6-yl)-6-methyl-phenyl]-acetic acid] | 24 nM |
| Cc1ccc(C2CC2)c(-c2ccc3c(c2)CCCO3)c1C(OC(C)C)C(=O)O (centres unmarked) [Example 36, (2-chroman-6-yl-3-cyclopropyl-6-methyl-phenyl)-isopropoxy-acetic acid] | 100 nM |
| Cc1ccc(C2CC2)c(-c2ccc3c(c2)CCCO3)c1C(OC1(C)CC1)C(=O)O (centres unmarked) [Example 39, (2-chroman-6-yl-3-cyclopropyl-6-methyl-phenyl)-(1-methyl-cyclopropoxy)-acetic acid] | 24 nM |
| Cc1ccc(C2CC2)c(C2=CCC(C)(C)CC2)c1C(OC(C)(C)C)C(=O)O (centres unmarked) [Example 18, 2-(tert-butoxy)-2-[3-cyclopropyl-2-(4,4-dimethyl-cyclohex-1-enyl)-6-methyl-phenyl]acetic acid] | 19 nM |
| COc1ccc(-c2c(C3CC3)ccc(C)c2C(OC(C)(C)C)C(=O)O)cc1 (centres unmarked) [Example 12, 2-(tert-butoxy)-2-(6-cyclopropyl-4′-methoxy-3-methyl-biphenyl-2-yl]acetic acid] | 78 nM |
| Cc1ccc(C2CC2)c(-c2cc(F)c3c(c2C)CCCO3)c1C(OC(C)(C)C)C(=O)O (centres unmarked) [Example 21, tert-butoxy-[3-cyclopropyl-2-(8-fluoro-5-methyl-chroman-6-yl)-6-methyl-phenyl]-acetic acid] | 14 nM |

Same assay, conditions: Human immunodeficiency virus 1, NL43, MT4, 120 h

| Compound | EC50 |
| --- | --- |
| Cc1ccc(CC2CC2)c(-c2ccc3c(c2)CCCO3)c1C(OC(C)(C)C)C(=O)O (centres unmarked) [Example 22, tert-Butoxy-(2-chroman-6-yl-3-cyclopropylmethyl-6-methyl-phenyl)-acetic acid] | 91 nM |
